Like-named read-outs stand apart in the source and are kept apart here.

Test [1] concerns BT-474 cells. Put plainly: MTT proliferation assay, BT-474. It counts as cell-based, human. The conditions noted are these: Homo sapiens. Background: Tetrazolium dyes change colour on reduction, which living cells bring about.
Test [2] deals with SKBR3 cells. Put plainly: Wound healing assay, SKBR3. The test is classed as cell-based. The conditions noted are these: Homo sapiens, SK-BR-3. Here is the method: In a sterile flat-bottom 24-well plate, SKBR3 and BT-474 breast cancer cells were plated at a density of 1 × 10^5 cells/well. […] Wounds were then inflicted across each cell monolayer using a sterile 200 µL pipette tip. Media was aspirated, and cells were washed twice with PBS to remove floating cells and cell debris. Fresh serum-free media was placed up against the well wall to cover the bottom of the well and prevent further cell detachment. Incubation of cells was resumed for five hours at 37 °C in a humidified CO2 incubator. Subsequently, the media were substituted with fresh ones containing various doses of liquiritin, oroxin B, or DMSO as a vehicle control (3 replicates/group) along with EGF (100 ng/mL) as a scattering factor. Wound closure was microscopically monitored in vehicle-treated control wells, and the time frame for wound closure was determined to be 72 h. Before the closure of wounds in the vehicle-treated control wells, the media were removed, cells were washed with PBS and completely fixed using cold methanol for 20 min at 4 °C. An inverted VistaVision microscope was used to take pictures of the wounds monitored at zero and 72 h with a VistaVision Still camera (VWR, Radnor, PA).
Results were expressed as a percentage of cell migration according to the following Equation[16]: [drawing 2]
Where Tt is the wound thickness in treatment wells, TDMSO is the thickness of the wound in control wells treated by DMSO, and Tº is the thickness of the wound at zero time. Wound thickness was calculated in three or more randomly selected fields per treatment group.

Test [3] deals with BT-474 cells. Put plainly: Transwell cell migration assay, BT-474. It counts as cell-based. As to conditions: Homo sapiens; BT-474, 3.5 µM, 24 h; read-out: inhibition of migration relative to vehicle-treated cells. As to the method:
The in vitro transwell migration assay was conducted using an HTS-96 transwell permeable support chamber with 8 μm pores (Corning, USA) equipped with polyvinylpyrrolidone-free polycarbonate (PVPF) filters. […] The plate was incubated for 24 h at 37 °C. Then, the transwell inserts were incubated in the receiver plate with Calcein AM/cell dissociation solution at 37 °C in 5% CO2 incubator for 1 h, followed by measuring the fluorescence using a fluorescence plate reader with 485 nm excitation and 520 nm emission filter package. The relative fluorescence units were converted to cell count using a standard curve. The number of cells that moved to the lower side of the filter was used to assess migratory characteristics. The experiment in both cell lines was conducted in triplicate and data are presented as the mean ± SD.

The subject of test [4] is SKBR3 cells. Put plainly: Annexin V-FITC/PI apoptosis detection, SKBR3. It counts as cell-based, human. As to conditions: SKBR3, 6.4 µM, 48 h. As to the method:
To evaluate the induction of apoptosis, the translocation of phosphatidylserine to the outer cell membrane, as a hallmark of early apoptosis, was detected by the binding of annexin V, using the Annexin V-FITC Early Apoptosis Detection Kit (BD BioVision). Cells were seeded at a density of 5 × 10^5 cells per 100 mm culture plate and allowed to adhere overnight. […] At the end of the treatment period, cells were harvested by trypsinization, washed twice with ice-cold PBS, and resuspended in 500 µL of chilled 1X Annexin V Binding Buffer. To each sample, 5 µL of Annexin V-FITC conjugate and 5 µL of propidium iodide (PI, 50 µg/mL) were added. The cell suspensions were incubated for 5 minutes on ice in the dark to allow for staining.
Flow cytometric analysis was performed using excitation at 488 nm and emission at 530 nm for FITC detection (FL1 channel) and phycoerythrin emission settings for PI detection (FL2 channel). Data acquisition and analysis were facilitated by Cell Quest software (BD Biosciences), with dot plots divided into four quadrants to distinguish different cell populations: lower left (LL) for viable, non-apoptotic cells (negative for both annexin V and PI); lower right (LR) for early apoptotic cells (annexin V-positive, PI-negative); upper left (UL) for dead or necrotic cells (PI-positive, annexin V-negative); and upper right (UR) for late apoptotic cells (double-positive). All assays were conducted in triplicate to ensure reliability and reproducibility.

Test [5] deals with HER2 protein in BT-474 cells. The test is described as follows: Western blot of p-HER2 and t-HER2, BT-474. The test is classed as cell-based, human. The conditions noted are these: BT-474, 5 µM, 72 h. Here is the method:
(§1) SKBR3 and BT-474 were plated in RPMI-1640 media, washed, and incubated for 72 h. They were lysed in cold lysis buffer, frozen, collected, sonicated, and centrifuged for 10 min under cooling. The stacking and resolving solutions for polyacrylamide gels were prepared using various solutions, including 30% acrylamide, 0.5 M Tris, 10% SDS, 10% Ammonium persulfate, and 0.005 mL TEMED in 3.4 mL water and 3.3 mL water respectively. The ReadyPrepTM protein extraction kit was used to extract total protein from samples. Protein concentration was determined using the Bradford Protein Assay Kit. Samples were mixed with Laemmli sample buffer, pH adjusted and boiled for five minutes at 95 °C before loading onto SDS-polyacrylamide gels. Proteins in each sample were mixed, boiled, and loaded onto SDS-polyacrylamide gels. They were separated using the SDS-PAGE method, using the TGX Stain-Free™ FastCast™ Acrylamide Kit and a Cleaver electrophoresis unit. Proteins were transferred from gels to PVDF membranes using transfer sandwiches. Filter paper, membrane, gel, and filter paper were stacked in a sandwich. Gels were blotted onto PVDF membranes via electrophoresis using a Bio-Rad Semi-dry Electroblotter for 30 min. […] The intensity of each band was quantitated using ImageLab.
For orientation: A western blot detects proteins with antibodies after separation by electrophoresis.

In test [6] the test system is HER2 protein in SKBR3 cells. Put plainly: Western blot of p-HER2 and t-HER2, SKBR3. It counts as cell-based, human. The conditions noted are these: SKBR3, 10 µM, 72 h. Here is the method:
as §1

In the case of `O=C1C[C@@H](c2ccc(O[C@@H]3O[C@H](CO)[C@@H](O)[C@H](O)[C@H]3O)cc2)Oc2cc(O)ccc21` [Liquiritin], the IC50 is 3.5 µM with BT-474 cells [1] (BT-474, MTT, 48 h (Table S8), read-out: Cell growth inhibition IC50); 3.5 ± 0.1 µM in the test with BT-474 cells [1] (BT-474, Table S9, read-out: IC50); 16.9 µM in the test with SKBR3 cells [2] (SKBR3, wound healing, read-out: IC50, cell migration). Moreover, in the test on SKBR3 cells [2] (SKBR3, 3 µM, 72 h, read-out: inhibition of cell migration), the inhibition at 3 µM was found to be 22.1%. In addition, the inhibition at 6 µM with SKBR3 cells [2] (SKBR3, 6 µM, 72 h, read-out: inhibition of cell migration) was determined as 32.8%. For the same compound, the inhibition at 10 µM in the test with SKBR3 cells [2] (SKBR3, 10 µM, 72 h, read-out: inhibition of cell migration) was 38.2%. Besides, the inhibition at 20 µM with SKBR3 cells [2] (SKBR3, 20 µM, 72 h, read-out: inhibition of cell migration) stood at 54.1%. Further, the inhibition at 3.5 µM with BT-474 cells [3] was about 76%. For the same compound, the early apoptotic population in the test on SKBR3 cells [4] was found to be 7.33%. In addition, in the test on SKBR3 cells [4], the “late apoptosis (Annexin V+/PI+) cells” value is on record as 14.59%. Further, in the test with SKBR3 cells [4], the necrotic population was 2.84%. For the same compound, the “total expression levels of HER2 protein” value in test [5] and in test [6] was “comparable suppressive effects” in each case. Besides, the HER2 phosphorylation entry in test [5] (vs vehicle) and in test [6] (vs vehicle) was “significantly inhibited HER2 phosphorylation” in each case.

The values are drawn from article PMC12267471, “Discovery of natural scaffolds as HER2 inhibitors for breast cancer: virtual screening, molecular dynamics, and biological characterization with selectivity profiling” (Scientific Reports, 2025).
